This note sets out measurements from patent EP0479888B1, “IMPROVED BUILDER-CONTAINING AQUEOUS CLEANER/DEGREASER MICROEMULSION COMPOSITIONS” (BUCKEYE INTERNATIONAL, INC., priority 1989, dated 1991).

The conditions of the data set: water.

Turning to `CCCCOC(C)=O` [n-butyl acetate], the “aqueous ambient temperature solubility” value was 0.7 wt.%.
